Non-standard residues stand in square brackets, D forms with d. Residues, ends and D or L forms follow the SMILES beside them. Groups on a side chain read outwards from the residue. Lys(thiomyristoyl) = CCCCCCCCCCCCCC(=S)NCCCC[C@H](N)C(=O)O; Tyr(3-NO2) = N[C@@H](Cc1ccc(O)c([N+](=O)[O-])c1)C(=O)O; Aun = NCCCCCCCCCCC(=O)O; 2Abz = Nc1ccccc1C(=O)O

Format in all cases: biochemical
Assay [1] has as its target T1, Sirt4 (Homo sapiens, UniProt Q9Y6E7).
T1 construct: made in house; host or cells: E. coli BL21 (DE3)
T1 sequence (Q9Y6E7 29-314): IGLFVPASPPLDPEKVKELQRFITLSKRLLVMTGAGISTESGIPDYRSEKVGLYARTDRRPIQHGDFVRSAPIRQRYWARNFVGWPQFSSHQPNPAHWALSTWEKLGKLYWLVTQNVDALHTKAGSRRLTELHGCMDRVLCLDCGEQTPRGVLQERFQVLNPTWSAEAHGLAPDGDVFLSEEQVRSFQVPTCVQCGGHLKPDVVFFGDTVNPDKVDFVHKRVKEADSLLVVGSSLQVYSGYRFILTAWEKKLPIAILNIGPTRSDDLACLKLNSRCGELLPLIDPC
Kind of assay: Continuous fluorescence assay, substrate kinetics. The following applies: Sirt4 1000 nM; fluorescence spectrophotometer (footnote a). Here is the method:
The fluorescence measurements were performed on a Hitachi F-4500 fluorescence spectrophotometer (Tokyo, Japan) at λEx = 310 nm and λEm = 405 nm (slitEx = 5 nm, slitEm = 2.5 nm, PMT = 700 V for 3, 4 and 5 as well as slitEx = 10 nm, slitEm = 10 nm, PMT = 950 V for 4a). Each reaction mixture contained assay-buffer, 0.5 mM NAD^+ and various peptide concentrations (0.1–100 μM) and was preincubated for 5 minutes at 37 °C. […] Product formation could be monitored by increase of relative fluorescence. This signal was converted into product concentration via calibration lines. The slope of the linear regression of product formation against time yielded the reaction velocity rates in μM/s. […] The reaction mixture was analyzed with HPLC, to control if the entire peptide substrate was turned to product. Additionally the mixture was diluted (0.1–25 μM) and measured with Hitachi F-4500 fluorescence spectrophotometer at the same conditions as described above.
(§1) The microtiter plate fluorescence measurements were performed on a Tecan Infinite M200 microplate reader (Maennedorf, Switzerland) at λEx = 320 nm and λEm = 408 nm (lag time 9 μs, integration time […], gain 160, 170 or 182). The reactions (total volume 100 μl) were measured in black low-binding 96-well microtiter plates (NUNC). […] The reaction mixture for the calibration lines was prepared as described for the single fluorescence measurements. […]

Assay [2] has as its target T2, Sirt5 (Homo sapiens, UniProt Q9NXA8).
T2 construct: made in house
T2 sequence (Q9NXA8 37-310): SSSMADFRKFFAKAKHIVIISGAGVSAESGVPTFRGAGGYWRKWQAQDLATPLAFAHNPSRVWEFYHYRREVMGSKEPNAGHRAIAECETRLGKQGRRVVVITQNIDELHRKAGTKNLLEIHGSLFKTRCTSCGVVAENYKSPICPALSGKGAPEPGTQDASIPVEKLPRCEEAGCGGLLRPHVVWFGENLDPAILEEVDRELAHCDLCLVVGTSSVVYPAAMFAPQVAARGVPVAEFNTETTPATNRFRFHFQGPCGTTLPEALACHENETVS
As to the kind of experiment: Continuous fluorescence assay, substrate kinetics. Conditions: Sirt5 500 nM; MTP fluorescence reader (footnote b). Here is the method: (§2) The fluorescence measurements were performed on a Hitachi F-4500 fluorescence spectrophotometer (Tokyo, Japan) at λEx = 310 nm and λEm = 405 nm (slitEx = 5 nm, slitEm = 2.5 nm, PMT = 700 V for 3, 4 and 5 as well as slitEx = 10 nm, slitEm = 10 nm, PMT = 950 V for 4a). Each reaction mixture contained assay-buffer, 0.5 mM NAD^+ and various peptide concentrations (0.1–100 μM) and was preincubated for 5 minutes at 37 °C. The reaction was started by adding human sirtuin (0.1–0.5 μM) and observed for 5–10 minutes. Product formation could be monitored by increase of relative fluorescence. This signal was converted into product concentration via calibration lines. […] The reaction mixture was analyzed with HPLC, to control if the entire peptide substrate was turned to product. Additionally the mixture was diluted (0.1–25 μM) and measured with Hitachi F-4500 fluorescence spectrophotometer at the same conditions as described above.
as §1

The target in assay [3] is T3, Sirt3 (Homo sapiens, UniProt Q9NTG7).
T3 construct: made in house
T3 sequence (Q9NTG7 1-399): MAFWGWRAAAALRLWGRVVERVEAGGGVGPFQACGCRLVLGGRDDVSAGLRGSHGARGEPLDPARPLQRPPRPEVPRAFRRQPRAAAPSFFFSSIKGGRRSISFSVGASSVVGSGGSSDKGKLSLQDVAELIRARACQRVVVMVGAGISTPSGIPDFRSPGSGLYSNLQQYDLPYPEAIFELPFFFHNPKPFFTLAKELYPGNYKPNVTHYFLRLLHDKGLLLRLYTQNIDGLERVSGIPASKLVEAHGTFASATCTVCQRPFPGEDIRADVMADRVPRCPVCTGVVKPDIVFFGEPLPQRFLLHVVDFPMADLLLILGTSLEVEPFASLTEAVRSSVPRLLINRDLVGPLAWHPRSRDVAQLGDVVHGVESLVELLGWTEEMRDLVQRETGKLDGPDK
As to the kind of experiment: Continuous fluorescence assay, substrate kinetics. The following applies: Sirt3 100 nM; fluorescence spectrophotometer (footnote a). Here is the method:
as §2, §1

Assay [4] deals with T3, Sirt3. Kind of assay: Ki determination with substrate 3, 96-well MTP fluorescence reader. The following applies: Sirt3 0.1 µM; varying substrate 3, 500 µM NAD+ (saturating). The protocol: (§3) All measurements were done in duplicates.
(§4) Supplementary Figure S13. […] Data are presented as mean ± s.d. (n=2) and lines represent the Michaelis-Menten-plot (left) and secondary plots (right). The apparent KM or Vmax^app-1 values from v/[S] characteristics were plotted against the corresponding inhibitor concentration.
(§5) Supplementary Figure S15. Kinetic characteristics for sirtuin inhibitor 8. The reactions were performed with 0.01 µM Sirt2 /0.1 µM Sirt3 /0.5 µM Sirt6 and 500 µM NAD^+ and varying concentrations of 3 (0.07-100 µM). […] Data are presented as mean ± s.d. (n=2) and lines represent the Michaelis-Menten-plot (left) and secondary plots (right). The apparent Vmax^app-1 values from v/[S] characteristics were plotted against the corresponding inhibitor concentration.

For assay [5], the target named is T4, Sirt2 (Homo sapiens, UniProt Q8IXJ6).
T4 construct: made in house
T4 sequence (Q8IXJ6 1-389): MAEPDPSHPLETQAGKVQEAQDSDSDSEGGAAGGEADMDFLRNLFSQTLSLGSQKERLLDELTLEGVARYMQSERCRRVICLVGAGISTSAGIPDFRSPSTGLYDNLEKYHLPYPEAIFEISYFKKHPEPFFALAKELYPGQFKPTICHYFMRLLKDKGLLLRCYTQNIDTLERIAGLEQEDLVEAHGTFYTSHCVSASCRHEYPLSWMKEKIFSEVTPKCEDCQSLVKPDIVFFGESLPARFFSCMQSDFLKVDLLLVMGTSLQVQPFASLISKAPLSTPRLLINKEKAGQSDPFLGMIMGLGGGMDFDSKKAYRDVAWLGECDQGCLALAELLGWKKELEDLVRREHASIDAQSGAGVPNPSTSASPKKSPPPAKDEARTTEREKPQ
The assay is described as above. The following applies: Sirt2 0.01 µM; varying substrate 3, 500 µM NAD+; read-out: Ki (3). The protocol:
The microtiter plate fluorescence measurements were performed on a Tecan Infinite M200 microplate reader (Maennedorf, Switzerland) at λEx = 320 nm and λEm = 408 nm (lag time 9 μs, integration time […], gain 160, 170 or 182). The reactions (total volume 100 μl) were measured in black low-binding 96-well microtiter plates (NUNC). Assay-buffer, 500 μM NAD^+ and 0.07–200 μM peptide substrate were pre-incubated at 37 °C for 5 min. The reaction was started by adding human sirtuin (0.01–0.5 μM). The signals were converted into product concentration via calibration lines and the resulting data were evaluated as described above (single fluorescence measurement). The determination for the kinetic constants of NAD^+ was performed in the same way, except that the peptide concentration was fixed (5, 25 or 200 μM) and the NAD^+ concentration was varied (10–1500 μM). All measurements were done in duplicates. The reaction mixture for the calibration lines was prepared as described for the single fluorescence measurements. […] The resulting plots were analyzed by a competitive inhibition and non-competitive inhibition model using the program Sigma Plot 8. The linear regression of the apparent KM-values against the corresponding inhibitor concentration yielded the inhibitor constant Ki for competitive inhibition. The Ki for non-competitive inhibition was determined by linear regression of 1/apparent Vmax against the corresponding inhibitor concentration. The negative Ki value can be determined as intersection with the X-axis from these plots.
Supplementary Figure S15. Kinetic characteristics for sirtuin inhibitor 8. The reactions were performed with 0.01 µM Sirt2 /0.1 µM Sirt3 /0.5 µM Sirt6 and 500 µM NAD^+ and varying concentrations of 3 (0.07-100 µM). […] The negative Ki value can be determined as intersection with the X-axis from the Vmax^app-1/I plot.
Supplementary Figure S16. […] The negative Ki value can be determined as intersection with the X-axis from the Vmax^app-1/I plot.
Supplementary Figure S17. […] The negative Ki value can be determined as intersection with the X-axis from the Vmax^app-1/I plot.

The target of assay [6] is T5, Sirt6 (Homo sapiens, UniProt Q8N6T7).
T5 construct: His-tag; made in house; host or cells: E. coli BL21 DE3
T5 sequence (Q8N6T7 whole entry): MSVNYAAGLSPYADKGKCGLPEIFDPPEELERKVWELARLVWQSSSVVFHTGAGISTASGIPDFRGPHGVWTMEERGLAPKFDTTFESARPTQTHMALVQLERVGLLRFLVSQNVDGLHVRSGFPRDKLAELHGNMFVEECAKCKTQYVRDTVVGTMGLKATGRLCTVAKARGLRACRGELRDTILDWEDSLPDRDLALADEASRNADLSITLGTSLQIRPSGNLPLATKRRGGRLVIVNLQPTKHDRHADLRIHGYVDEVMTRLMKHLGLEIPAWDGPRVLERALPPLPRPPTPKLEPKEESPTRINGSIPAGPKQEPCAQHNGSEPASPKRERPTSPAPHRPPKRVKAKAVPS
The assay is described as above. Conditions: Sirt6 0.5 µM; varying substrate 3, 500 µM NAD+ (saturating). The protocol:
as §3, §4
Supplementary Figure S14. […] The reactions were performed with 0.5 µM Sirt6 and either 500 µM NAD^+ and varying concentrations of 3 (2-100 µM). […] Data are presented as mean ± s.d. (n=2) and lines represent the Michaelis-Menten-plot (left) and secondary plots (right). The apparent Vmax^app-1 values from v/[S] characteristics were plotted against the corresponding inhibitor concentration.
as §5

For assay [7], the target named is T5, Sirt6. As to the kind of experiment: Isomer specific inhibition by thioxo peptides, HPLC. The following applies: substrate 2a, 30 min, 20 °C. The protocol: After 30 min incubation at 20 °C reaction was stopped using 10% TFA solution. Inhibitor solutions were irradiated at 254 nm for 5 min. Separated isomers were applied in concentrations from 1 to 10 μM. The influence of cis content on sirtuin inhibition using fluorescence spectrometer was determined with 500 μM NAD^+, 5 μM 3, 0.1 μM Sirt2 and 0.1 μM 9. Reactions were done at 20 °C with 9 in GS and PSS (after 5 min irradiation at 254 nm). 9 in PSS was applied immediately after irradiation (transfer time ~5 s) and started directly by adding sirtuin. Reactions were measured within 1 min to avoid re-isomerization.
Supplementary Figure S36. Determination of IC50 value of 8 for Sirt6 in GS (?) and PSS (π). Data were fitted with U(%) = Umin(%) + (Umax(%) – Umin(%))/(1+10^(x-logIC50)) with U(%) percental turmover of substrate 2a; Umin(%) lowest turnover of substrate; Umax(%) maximal turnover of substrate (n=3).
Supplementary Figure S37. Inhibition of Sirt6 by 8 (?) and 9 (π).Data were fitted with U(%) = Umin(%) + (Umax(%) – Umin(%))/(1+10^(x-logIC50)) with U(%) percental turmover of substrate; Umin(%) lowest turnover of substrate 2a; Umax(%) maximal turnover of substrate (n=3).
Supplementary Figure S38. Determination of IC50 of 9 for Sirt6 with 72.4 % cis- (π) and 70.3 % (?) trans-content. Measurements were done with 10 µM peptide substrate (big figure) or 30 µM (small figure). Data were fitted with U(%) = Umin(%) + (Umax(%) – Umin(%))/(1+10^(x-logIC50)) with U(%) percental turmover of substrate 2a; Umin(%) lowest turnover of substrate; Umax(%) maximal turnover of substrate (n=3).

One may read the Km as the substrate concentration at which the rate is half of its maximum. Consider `CC(=O)N[C@@H](CCC(=O)O)C(=O)N[C@@H](C)C(=O)N[C@@H](CC(C)C)C(=O)N1CCC[C@H]1C(=O)N[C@@H](CCCCN)C(=O)N[C@@H](CCCCNC(=O)CCCCCCCCCCNC(=O)c1ccccc1N)C(=O)N[C@@H](Cc1ccc(O)c([N+](=O)[O-])c1)C(=O)NCC(=O)NCC(N)=O` [peptide 3] (Ac-EALPKK([Aun-2Abz])[Tyr(3-NO2)]GG-NH2), for which the Km is 49.5 ± 7.5 µM in assay [1], 46.1 ± 7.2 µM in assay [2] and 3.3 ± 0.4 µM in assay [3].

A word on the Ki: it is a measure of affinity in units of concentration, obtained from inhibition or displacement. As a reminder, the IC50 is the concentration at which inhibition is half-maximal. Higher therefore signals weaker potency in that assay. Consider `CCCCCCCCCCCCCC(=S)NCCCC[C@H](NC(=O)[C@H](CCCCN)NC(=O)[C@@H]1CCCN1C(=O)[C@H](CC(C)C)NC(=O)[C@H](C)NC(=O)[C@H](CCC(=O)O)NC(C)=O)C(=O)N[C@H](C(=O)NCC(=O)NCC(N)=O)[C@@H](C)O` [peptide 8] (Ac-EALPK[Lys(thiomyristoyl)]TGG-NH2), for which the inhibition constant (Ki) in assay [4] was found to be 0.1 ± 0.02 µM; in assay [5] it was 0.08 ± 0.02 µM; in assay [6] it was 0.4 ± 0.1 µM. Further, the IC50 was 1.06 ± 0.12 µM in assay [7] (inhibitor with 2.5% cis isomer (ground state)) and 1.87 ± 0.18 µM in assay [7] (inhibitor with 25% cis isomer (photo-excited state)).

For the origin of these results see publication PMC4778124, “A continuous sirtuin activity assay without any coupling to enzymatic or chemical reactions” (Scientific Reports, 2016).
